Test results published in patent publication US8278265B2, “Methods, kits and compositions comprising crotamine” (Fundacao de Amparo a Pesquisa do Estado de Sao Paulo—FAPESP, priority 2005, dated 2012).
Ends that are not written are not given here.

Tests used:
3T3 cell line = test: Transfection of GFP plasmid DNA by crotamine peptide fragments; type: cell-based, mouse; details: for treatment time giving the best result: 24 and 48 hours tested
Method: 3T3 cells (spontaneously immortalized primary mouse fibroblasts) or COS-7 (cells derived from kidney of African green monkey) were plated (1.5×10^5) in 6-wells plate (dimension of 6×35 mm), containing DMEM culture medium with 10% fetal bovine serum (FBS) and […] L-glutamine, with no antibiotics, 1 or 2 days before the transfection until reaching 60% to 80% confluence of the plate. Transfection was performed in DMEM medium ([…]) with 2% FBS and 80 or 100 μM chloroquine. Aggregates (crotamine plus 2 μg DNA in 0.2 ml HBM) were added in each well, on the cells in culture. After five hours of incubation at 37° C., under humid atmosphere and 5% CO2, the medium was substituted with another one containing 10% FBS. In the control culture wells, DNA was added in the same concentration and they were processed in the same way of experimental samples. After 24 and 48 hours, cells were washed with PBSA and fixed with 3.7% formaldehyde. The transfection medium was substituted with DMEM medium, containing 10% FBS, and the transgenic expression was then evaluated 24 to 48 hours after the transfection. The efficiency of transfection as determined by DNA-peptide aggregates was compared with that obtained by using lipofectamine, following routine protocol.
Two peptides were synthesized based on crotamine sequence, e.g. two sequences corresponding to fragments of crotamine, i.e. Crot2-18 ([…] (SEQ ID NO: 3)), herewithin designated as peptide 1, and Crot27-39 ([…] (SEQ ID NO: 4)), herewithin designated as peptide 2. The ability and efficiency of these two peptides to transfect cells in vitro and in vivo were analysed. The same protocol which was used for natural crotamine, as described in Example 9 was followed: Peptides were mixed with the plasmid DNA containing the gene coding for GFP (green fluorescent protein). After forming the complex with DNA, peptides were put on Petri dishes containing 3T3 cell line and left in the CO2 oven for 24 and 48 hours. Subsequently, cells were fixed and the result of transfection was analysed by confocal microscopy. As controls, the same cells were transfected by using Lipofectamin, as well as the crotamine molecule with 42 amino acid residues.

mice = test: Paralysis of the hind legs of mice after intraperitoneal injection; type: in vivo; details: sublethal dose, 50 μg of the conjugate (2.5 mg of toxin/kg) intraperitoneally, mouse
Method: When injected intraperitoneally, crotamine causes a quick paralysis, in less than 15 minutes, of the hind legs of mice, which is the typical physiological effect of this toxin.
Crotamine (1 mg) was suspended in 1 ml buffer (100 mM sodium carbonate/bicarbonate, pH 9.3) and conjugated to the fluorescent dye Cy3, a cyanine derivative supplied as a bifunctional form of an NHS-type ester in the Fluorolink Cy3 dye pack kit (Amersham Biosciences). To verify if Cy3-crotamine is biologically active, a sublethal dose, 50 μg of the conjugate (corresponding to 2.5 mg of toxin/kg) was intraperitoneally injected into a mouse. The crotamine linked to Cy3 complex caused the typical paralysis response of the hind legs in less than 15 minutes after injection.

blastocyts = test: Internalization of Cy3-conjugated crotamine in blastocysts in vitro; type: cell-based, murine; details: cell cytoplasm, FIG. 1
Method: Embryonic bodies (EBs) were obtained by the hanging drop method, as described above, using culture medium containing crotamine at various concentrations (100 μM to 0.1 μM), changing the medium every two to three days. To analyze the crotamine location in EBs under development, crotamine was substituted with crotamine linked to Cy3 (Cy3-crotamine) during the final 24 hours of incubation. Compact murine morulae (8-16 cells) were obtained from the oviduct and cultivated for 24 hours at 37° C. in 5% CO2, in individual microwells of V-bottom plates (Costar) with […] microwells in M16 medium (supplier: Sigma) and Cy3-crotamine (1-0.1 μM). After 24 hours of culture, normally developed blastocyst numbers were compared within the control and the experimental group.

[1] = test system: cells from the peritoneal liquid and from the murine bone marrow; test: In vivo incorporation of Cy3-crotamine after intraperitoneal injection; parameters: species or system CD-1 strain mice
Method: In vitro assay: Semiconffluent cultures of pluripotent and differentiation ES cells (homogeneous cell population), as well as other cell cultures of normal and tumor origin, were kept in small laminar slides placed in 24-well plates containing appropriate culture medium. Cells were incubated for 2-3 minutes to 72 hours in the presence of Cy3-crotamine, under concentrations between 10 μM and 0.01 μM, or as control, just in the presence of the dye agent Cy3 diluted in 1 ml PBS (control). In in vivo assays, 1 ml of 1 μM Cy3-crotamine or the pure control dye agent Cy3 (1 ml) in PBS were intraperitoneally injected into a mouse (line CD-1). After 3 hours, cells from the bone marrow (mixed cell population), spleen and peritoneal liquid (mixed cell population) were isolated. Cells from the peritoneal liquid adhered to the microscope slides for one hour in RPMI medium supplemented with 10% FCS and no antibiotics at 37° C., under humid atmosphere and 5% CO2. In all assays, cells were washed twice with cold solutions of 0.1 M PBS, pH 7.4, fixed with 3.7% formaldehyde in PBS for fifteen minutes and washed twice with PBS. Microscope slides were prepared in the PBS/glycerol (1:1) solution. Alternatively, non-fixed cells were washed twice with PBS and observed in the confocal microscope.
(§1) To analyze the specific binding of Cy3-crotamine to chromatin and centrosome (a pair of small organelles named the centrioles), the same experimental procedure, as described above, was used, the sole difference consisting in the pre-treatment of ES cells and murine embryonic fibroblasts with 1 μM of free crotamine, followed by treatment with the conjugated crotamine, Cy3-crotamine, for 15 minutes more. A similar experiment was conducted in vivo, by injecting in mice both the conjugated and the free crotamine. As a control, 1 μM of Cy3-crotamine was used and incubated for 15 minutes. For the confocal microscopy analysis, cells were prepared as described above. Experiments with animals were carried out according to the international ethical recommendations for the use of animals.

centrosome = test: Marker for centrosome; type: cell-based; details: cells from the peritoneal liquid of mice and ES cells, FIG. 9
Method: as §1
Embryonic bodies, obtained according to the protocol as described above, after three days, adhered to small glass slides. On the following day, actively proliferating cells were simultaneously labeled with 5-bromo-2′-deoxyuridine (BrDU) and Cy3-crotamine. BrDU-labeled cell detection by the monoclonal antibody anti-BrDU (clone BU-1) was made according to manufacturer's recommendations (Amersham-Pharmacia Biotech). The secondary antibody was conjugated to the fluorescent compound FITC. […] Microscope slides were assembled in a PBS/glycerol solution (1:1) and analysed in a confocal microscope. […]

B16F10 cells tumor = test: Tumor labeling by cy3-crotamine; type: in vivo, Balb/c mouse; details: 5 μg/animal intraperitoneal, 24 hours after
Method: The cells were maintained in Dulbecco's modified Eagle's cell culture medium (DMEM; Invitrogen, Carlsbad, Calif.) supplemented with 15% fetal calf serum (FCS; Invitrogen). The cells were kept at 37° C. with humidity and 5% CO2. After preparing a cell suspension with about 5×10^6 cells/ml of PBS [phosphate buffered solution], approximately 0.2 ml of this suspension was subcutaneously or endovenously (retroorbital injection) injected into each Balb/c mouse, of 4 to 6 weeks-old with body weight between 16 to 20 g. For negative control, the animals were injected with 0.2 ml of PBS. Before setting up the experiments, the animals were kept under 12 hour light-dark cycle, and were allowed to have water and food ad libitum. All animals were caged and handled under ethical conditions according to international rules of animal care, stated by the International Animal Welfare Recommendations, and in accordance with the Guidelines for the Use of Animals in Biochemical Research
About 8 to 12 days after subcutaneous injection of B16F10 cells, the visible ‘melanoma’ tumors were removed and analyzed.
To observe the accumulation of fluorescently labeled crotamine [Cy3-crotamine] into tumors, injected mice were treated by a single intraperitoneal injection of 5 μg of cy3-crotamine/animal. 24 hours after, the animals were sacrificed and the ‘melanoma’ tumors and internal tissues were removed and analyzed [frozen/Tissue-Tek and Paraplast block preparations]. The frozen slices were stained with DAPI and analyzed by confocal microscopy. […]
To observe the accumulation of fluorescently labeled crotamine [Cy3-crotamine] into tumors, injected mice were treated by a single intraperitoneal injection of 5 μg of cy3-crotamine/animal. 24 hours after, the animals were sacrificed and the internal tissues (including those showing metastasis) were removed and analyzed [frozen/Tissue-Tek and Paraplast block preparations]. The frozen slices were stained with DAPI and analyzed by confocal microscopy.

[2] = three hours after intraperitoneal injection, CD-1 mice
[3] = subcutaneous injection of B16F10

| Substance | signals from actively proliferating 3T3 cells compared with the original crotamine (3T3 cell line) | treatment time giving the best result (3T3 cell line; 3T3 cells) [h] | green fluorescence corresponding to GFP expression (3T3 cell line; 3T3 cells, in comparison with peptide 2, confocal microscopy) | time to typical paralysis response of the hind legs after injection (mice) | fluorescence in blastocysts (confocal microscopy) (blastocyts) | fluorescence in cytoplasm of mouse megakaryocyte ([1]; FIG. 5E-G) | fluorescence after pretreatment with non-labeled crotamine ([1]; cells pretreated with non-labeled crotamine, megakaryocyte, FIG. 5H) | signal in cytoplasm of living cells of the peritoneal liquid ([1]; living cells, FIG. 3A-C) | signal in nucleus of living cells of the peritoneal liquid ([1]; living cells, FIG. 3A-C) | signals on cells from the murine bone marrow [1, 2] | signals on cytoplasm and nucleus of cells from the peritoneal liquid [1, 2] | marking of the centrosome cycle (centrosome) | fluorescent signal inside the cell mass of B16F10 cells tumor (B16F10 cells tumor; endovenous injection of B16F10) | fluorescent signal inside the cell mass of B16F10 cells tumor (B16F10 cells tumor; [3]) | localization in tumor cells (overlay with DAPI) (B16F10 cells tumor; [3]) |
| --- | --- | --- | --- | --- | --- | --- | --- | --- | --- | --- | --- | --- | --- | --- | --- |
| KQCHKKGGHCFPKEKIC [peptide 1] | no distinctive signals | 48 | more intense green fluorescence | – | – | – | – | – | – | – | – | – | – | – | – |
| KMDCRWRWKCCKK [peptide 2] | no distinctive signals | 48 | – | – | – | – | – | – | – | – | – | – | – | – | – |
| Cy3-crotamine: crotamine conjugated to the fluorescent dye Cy3, a cyanine derivative (YKQCHKKGGHCFPKEKICLPPSSDFGKMDCRWRWKCCKKGSG; disulfide (positions not given here); not fully specified (bridges); ends not checked; also: Cy3 dye label, site not given here; UniProt Q9PWF3 23-64, looked up) | – | – | – | less than 15 minutes | intense fluorescence | weak fluorescence | Strong fluorescence restricted to the cytoplasm | strong | moderate | strong signals | strong signals | functions as a marker for the centrosome cycle | strong fluorescent signal | strong fluorescent signal | observed in the nucleus of the cells |
